According to patent publication US20050221381A1, “Method for isolating ligands” (priority 2002, published 2005):
Entries after “also recorded” stand apart in the source; their conditions may differ. Like-named read-outs stand apart in the source and are kept apart here.

Key:
[1] = biological target: T1, soluble DRB1*0101 molecules (Homo sapiens, UniProt P01903+P01911, A100R/D57E/F55L/F60I/F76Y/I96L/L162R/M171V/P40L/Q125E/R42F/V115G/Y59C); assay: Peptide binding assay, SDS-stability assay; set-up: key: −: no binding/T cell response; +/−: weak binding/T cell response; +: intermediate binding/T cell response; ++: strong binding/T cell response
T1 construct: Soluble HLA class I A*0201 and HLA class II DRA1*0101/DRB1*0101/Ii, DRA1*0101/DRB1*0401/Ii and DRA1*0101/DRB1*0404/Ii molecules were expressed in SC-2 cells; made in house; host or cells: SC-2 cells

[2] = test system: HLA-DRB1*0401-transgenic mice splenocytes; assay type: in vivo, mouse; set-up: key to DRB1*0401 mice total SC (T cell response) / DRB1*0401 mice CD4+ (T cell response): −: no binding/T cell response; +/−: weak binding/T cell response; +: intermediate binding/T cell response; ++: strong binding/T cell response; details: for Immunogenicity in DRB1*0401-transgenic mice (in words): INF-gamma ELISpot (FIG. 12)
[3] = biological target: T2, soluble DRB1*0404 molecules (Homo sapiens, UniProt P01903+P01911, A100R/A169T/F76Y/I96L/K127E/L162R/M171V/N62H/P40V/Q125Y/R42H/S133A/S149N/S66Y/V209L/W38E); assay: Peptide binding assay, SDS-stability assay; set-up: key: −: no binding/T cell response; +/−: weak binding/T cell response; +: intermediate binding/T cell response; ++: strong binding/T cell response
T2 construct: Soluble HLA class I A*0201 and HLA class II DRA1*0101/DRB1*0101/Ii, DRA1*0101/DRB1*0401/Ii and DRA1*0101/DRB1*0404/Ii molecules were expressed in SC-2 cells; made in house; host or cells: SC-2 cells

[4] = biological target: T3, soluble DRB1*0401 molecules (DR4) (Homo sapiens, UniProt P01903+P01911, A100K/A169T/F76Y/I96L/K127E/L162R/M171V/N62H/P40V/Q125Y/R42H/S133A/S149N/S66Y/V115G/V209L/W38E); assay type: binding; set-up: key: −: no binding/T cell response; +/−: weak binding/T cell response; +: intermediate binding/T cell response; ++: strong binding/T cell response
T3 construct: Soluble HLA class I A*0201 and HLA class II DRA1*0101/DRB1*0101/Ii, DRA1*0101/DRB1*0401/Ii and DRA1*0101/DRB1*0404/Ii molecules were expressed in SC-2 cells; made in house; host or cells: SC-2 cells

[5] = biological target: T3, soluble DRB1*0401 molecules (DR4); assay type: binding; set-up: key to DR4 binding: +++: high binding affinity; ++: moderate binding affinity; +: low binding affinity; −: no binding; key to Binding to DRB1 *0401: −: no binding/T cell response; +/−: weak binding/T cell response; +: intermediate binding/T cell response; ++: strong binding/T cell response; details: for Binding to soluble DRB1*0401 molecules (in words): SDS-stability assay
DRB1*0701 = DRB1*0701 (Homo sapiens, UniProt P01903+P01911, A100R/A102G/A103Q/D57E/D86V/E43K/F76Y/K127E/L162R/M171V/P40G/Q125H/Q99D/R33Q/R42Y/R54Q/S133A/S66F/T210M/V115G/Y107V/Y59L/Y89S); assay: Peptide-competition assay with biotinylated CLIP peptide (ELISA); assay type: binding; set-up: key: −: no binding/T cell response; +/−: weak binding/T cell response; +: intermediate binding/T cell response; ++: strong binding/T cell response
Procedure: (§1) The binding affinities to DRB1*0701 and DRB1*1101 were tested by a peptide-competition assay (Reay et al., 1992). Briefly, binding of the biotinylated CLIP peptide (reference peptide) has been used for monitoring of HLA:peptide complex formation. […] In the case of lower affinity peptides they should be added in excess to the reference peptide to compete for occupancy of HLA binding grove. […] Alternatively, comparing of the amount of reference peptide bound to HLA molecules in the presence or absence of competitor peptide one can determine the binding activity of the peptide of interest.
(§2) In the present peptide-competition assay conditions of peptide binding were similar to described above. Soluble HLA molecules were used in the concentration of 0.5 μM and biotinylated CLIP was added to all samples in the final concentration of 2 μM. Competitor peptides were added in three different concentrations: 0.25, 5 and 100 μM. Binding reaction was performed in PBS buffer (pH 7.4) for 18 hours at 37° C. […] Briefly, MaxiSorb 96-well plates (Nunc, Denmark) were coated with mouse anti-αβ antibody L243 (purified from ATCC HB-55) by overnight incubation with 50 μl of 10 μg/ml dilution in PBS at 4° C. Non-specific binding to the plastic was blocked by incubation with T-PBS containing 3% of BSA for 2 hours at 37° C. and binding reactions were then “captured” for 2 hours at room temperature. […] The optical density at 405 nm was measured on a microplate reader SUNRISE (Tecan).

DRB1*1101 = DRB1*1101 (Homo sapiens, UniProt P01903+P01911, A100R/A169T/A87E/I96F/K41T/L162R/M171V/P40S/Q125H/Q178H/Q39Y/Q99D/R42S/S66Y/T262R/V115G/W38E); assay: as above; assay type: binding; set-up: key: −: no binding/T cell response; +/−: weak binding/T cell response; +: intermediate binding/T cell response; ++: strong binding/T cell response; details: for Binding to DRB1*1101: longer peptides no. 1500-1505, peptide-competition assay
Procedure: as §1, §2

[6] = biological target: T4, soluble DRB1*0401 molecules (Homo sapiens, UniProt P01903+P01911, A100K/A169T/F76Y/I96L/K127E/L162R/M171V/N62H/P40V/Q125Y/R42H/S133A/S149N/S66Y/V115G/V209L/W38E); assay: Epitope capture from peptide mixtures, gel filtration and MALDI-TOF MS of bound peptides; assay type: binding
T4 construct: Soluble HLA class I A*0201 and HLA class II DRA1*0101/DRB1*0101/Ii, DRA1*0101/DRB1*0401/Ii and DRA1*0101/DRB1*0404/Ii molecules were expressed in SC-2 cells; made in house; host or cells: SC-2 cells
Excerpt: After peptide binding reaction with soluble HLA molecules, HLA-peptide complexes were separated from free peptides by gel-filtration chromatography on Superdex-200 column (AKTAdesign, Amersham Pharmacia Biotech). HLA-containing fractions were collected, and bound peptides were reconstituted from the complexes by adding TFA to the final concentration of 1%. Peptides were desolted by Ziptip purification and analyzed by MALDI-TOF mass-spectrometry.
Second, the ability to capture peptides binding to HLA class II molecules from the mixture of two high affinity ligands was tested. The binding reaction contained 1 μM of soluble DRB1*0401 molecules and 5 μM of each YAR and 1242 peptide. After the HLA-peptide complexes were formed, they were separated from the excess of free peptides by gel filtration chromatography. Fractions containing MHC molecules were collected. Bound peptides were eluted from the complexes and analyzed by mass-spectrometry.
Third, it was investigated if the binding capacity of the high affinity ligand would be influenced by the excess of low affinity peptide. […] Peptide binding was assessed by SDS-stability assay and verified by MS analysis (FIG. 3).
The final concentration of each peptide in binding reaction was 5 μM, except 1236 added in 55 μM, meaning that the concentration of each individual binding peptide was 20-fold lower than final concentration of all peptides. DRB1*0401 molecules were added to 1 μM. The formation of MHC-peptide complexes was evaluated as described above, using single peptides as controls (FIG. 4). […] The result of this analysis yielded the two peptides with highest binding affinities: 1242 and YAR (see Table 1). The peptides with moderate and/or low affinities were not found in the complexes, probably due to the high concentration of strong competitors used in this assay.

[7] = longer peptides no. 1500-1505, peptide-competition assay
[8] = CD4+ fraction of splenocytes, IFN-γ ELISpot
[9] = IFN-gamma ELISpot, enriched CD4+ fraction of splenocytes of HLA-DR4 transgenic mice vaccinated with the longer peptide, ex vivo re-stimulation
[10] = IFN-gamma ELISpot, total splenocytes of HLA-DR4 transgenic mice vaccinated with the longer peptide, ex vivo re-stimulation
[11] = total splenocytes, ex vivo restimulation, IFN-γ ELISpot

Sequence	Binding to DRB1*0101 ([1]; longer peptides no. 1500-1505)	Binding to DRB1*0101 ([1]; soluble DRB1*0101 molecules)	Binding to DRB1*0404 ([3]; longer peptides no. 1500-1505)	Binding to DRB1*0404 ([3]; soluble DRB1*0404 molecules)	Binding to DRB1 *0701 (DRB1*0701; DRB1*0701)	Binding to DRB1 *0701 (DRB1*0701; [7])	Binding to DRB1 1101 (DRB1*1101)	Binding to DRB1*1101 (DRB1*1101)	DRB1*0401 mice CD4+ (T cell response) [2, 8]	DRB1*0401 mice CD4+ (T cell response) [2, 9]	DRB1*0401 mice total SC (T cell response) [2, 10]	DRB1*0401 mice total SC (T cell response) [2, 11]	Binding to DRB1*0401 ([4]; longer peptides no. 1500-1505)	Binding to DRB1 *0401 ([5]; soluble DRB1*0401 molecules)	further results
LLQRGPQYSEHPTFTSQYRIQG [Peptide 1502]	−	−	−	−	−	−	++	++							CD4+ / CD8+ response of separated splenocytes ([2]; mouse, in vivo): simultaneous CD4+ and CD8+ response; DRB1*0401 mice CD4+ (T cell response) ([2]; mouse, in vivo): ++; DRB1*0401 mice total SC (T cell response) ([2]; mouse, in vivo, sc): + and ++; Binding to DRB1*0401 [4]: +; Binding to DRB1 *0401 [5]: +
PSLILVSQYTPDSTPCHRGDNQLQVQHTR [Peptide 1500]	+	+	++	++	−	−	−	−	+	+	+	+	++	++	
QGQNLKYQEFFWDANDIYRIF [Peptide 1505]	−	−	−	−	−	−	−	−	++	++	++	++	+/−	+	Immunogenicity in DRB1*0401-transgenic mice (in words) ([2]; total splenocytes): highest frequency of T cells; Binding to soluble DRB1*0401 molecules (in words) [5]: not so good in binding assay
QWKEPDVYYTSAFVFPTKDVALR [Peptide 1501]	++	++	−	−	−	−	+	+/−	+	+	+	+	+	+	
TSGVMTRGRLKAESTVAPEEDTDE [Peptide 1504]	+	+		++	−	−	+	+	++	++	+	+	+	+	
YARFQSQTTLKQKT [reference compound]															Peptides captured from pool of 10 peptides, MS analysis ([6]; each peptide 5 μM, 1236 55 μM, DRB1*0401 1 μM): captured by DR4 molecules; Peptides found in complexes with MHC molecules by MS ([6]; mixture of two ligands, 5 μM each, 1 μM DRB1*0401): revealed in the complexes with MHC molecules; DR4 binding [5]: +++
YRHTWDRHDEGAAQGDDDVW [Peptide 1503]	−	−	−	−	−	−	−	−	−	−	−	−	+/−	+/−	Immunogenicity in DRB1*0401-transgenic mice (in words) ([2]; total splenocytes): did not induce immune response; also recorded: not immunogenic; Binding to soluble DRB1*0401 molecules (in words) [5]: weak affinity
